According to US11739074B2, “Ras inhibitors” (Revolution Medicines, Inc., priority 2019, dated 2023):
Values joined by “and” are separate entries in the source; they are usually repeats but may differ in a detail not shown here. Equal values may be shown once. Read-outs that look alike come from different tables or passages of the source.

Columns and labels:
[1] = molecular target: KRAS G12S (Homo sapiens, UniProt P01116+P62937, G12S); experiment: Ras-Raf disruption/FRET/MOA assay, KRAS G12S; type: biochemical
Chain of KRAS G12S (P01116 1-169 isoform P01116-2 G12S limits assumed): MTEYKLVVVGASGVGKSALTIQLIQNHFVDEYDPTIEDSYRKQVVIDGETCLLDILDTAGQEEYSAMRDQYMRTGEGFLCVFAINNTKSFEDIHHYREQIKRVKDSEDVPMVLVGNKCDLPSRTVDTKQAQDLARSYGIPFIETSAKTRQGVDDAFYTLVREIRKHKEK
Chain of KRAS G12S (P62937 whole entry, the tested form may be a part): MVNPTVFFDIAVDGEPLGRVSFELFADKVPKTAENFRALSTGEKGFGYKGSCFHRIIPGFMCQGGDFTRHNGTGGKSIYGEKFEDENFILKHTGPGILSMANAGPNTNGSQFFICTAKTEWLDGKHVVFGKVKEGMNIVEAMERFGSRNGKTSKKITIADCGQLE
Text: (§1) Disruption of B-Raf Ras-Binding Domain (BRAF^RBD) Interaction with K-Ras by Compounds of the Invention (Also Called a FRET Assay or an MOA Assay)
(§2) Note—The following protocol describes a procedure for monitoring disruption of K-Ras G12C (GMP-PNP) binding to BRAF^RBD by a compound of the invention. This protocol may also be executed substituting other Ras proteins or nucleotides, such as K-Ras G12D and K-Ras G13D.
(§3) The purpose of this biochemical assay was to measure the ability of test compounds to facilitate ternary complex formation between a nucleotide-loaded K-Ras isoform and Cyclophilin A; the resulting ternary complex disrupts binding to a BRAF^RBD construct, inhibiting K-Ras signaling through a RAF effector.
(§4) In assay buffer containing 25 mM HEPES pH 7.3, 0.002% Tween20, 0.1% BSA, 100 mM NaCl and 5 mM MgCl2, tagless Cyclophilin A, His6-K-Ras-GMPPNP, and GST-BRAF^RBD were combined in a 384-well assay plate at final concentrations of 25 μM, 12.5 nM, and 50 nM, respectively. Compound was present in plate wells as a 10-point 3-fold dilution series starting at a final concentration of 30 μM. After incubation at 25° C. for 3 hours, a mixture of anti-His Eu-W1024 and anti-GST allophycocyanin was then added to assay sample wells at final concentrations of 10 nM and 50 nM, respectively, and the reaction incubated for an additional 1.5 hours. […] Compounds that facilitate disruption of a K-Ras:RAF complex were identified as those eliciting a decrease in the TR-FRET ratio relative to DMSO control wells.

[2] = system: AsPC-1 (K-Ras G12D); experiment: CellTiter-Glo cell viability assay, AsPC-1; type: cell-based; conditions: Homo sapiens, ASPC1, 120 h
Procedure, shortened: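 Cells already in plates received compound by direct dispensing. After incubation to day 5, plates sat at room temperature roughly 30 minutes, then ATP-based luminescence was measured and values derived from a four-parameter fit of DMSO-normalized data.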

[3] = molecular target: KRAS WT (Homo sapiens, UniProt P01116+P62937); experiment: Ras-Raf disruption/FRET/MOA assay, KRAS WT; type: biochemical
Chain of KRAS WT (P01116 1-169 isoform P01116-2 limits assumed): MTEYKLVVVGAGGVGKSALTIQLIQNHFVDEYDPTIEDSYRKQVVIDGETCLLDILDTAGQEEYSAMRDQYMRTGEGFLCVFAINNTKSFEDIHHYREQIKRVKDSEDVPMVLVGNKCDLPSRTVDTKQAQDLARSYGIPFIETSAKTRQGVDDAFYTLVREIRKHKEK
Chain of KRAS WT (P62937 whole entry): as the sequence (P62937 whole entry, the tested form may be a part) above
Text: as §1, §2, §3, §4

[4] = molecular target: KRAS G12V (Homo sapiens, UniProt P01116+P62937, G12V); experiment: Ras-Raf disruption/FRET/MOA assay, KRAS G12V; type: biochemical
Chain of KRAS G12V (P01116 1-169 isoform P01116-2 G12V limits assumed): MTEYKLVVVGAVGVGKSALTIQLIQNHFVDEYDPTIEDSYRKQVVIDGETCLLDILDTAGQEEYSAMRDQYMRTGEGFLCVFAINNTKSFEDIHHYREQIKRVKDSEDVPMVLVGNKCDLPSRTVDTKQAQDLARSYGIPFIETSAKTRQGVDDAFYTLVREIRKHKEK
Chain of KRAS G12V (P62937 whole entry): as the sequence (P62937 whole entry, the tested form may be a part) above
Text: as §1, §2, §3, §4

[5] = molecular target: KRAS G12D (Homo sapiens, UniProt P01116+P62937, G12D); experiment: Ras-Raf disruption/FRET/MOA assay, KRAS G12D; type: biochemical
Chain of KRAS G12D (P01116 1-169 isoform P01116-2 G12D limits assumed): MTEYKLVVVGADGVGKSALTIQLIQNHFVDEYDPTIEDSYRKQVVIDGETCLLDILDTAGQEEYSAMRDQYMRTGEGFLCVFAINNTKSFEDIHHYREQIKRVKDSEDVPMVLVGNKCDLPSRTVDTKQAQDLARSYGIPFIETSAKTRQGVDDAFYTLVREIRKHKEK
Chain of KRAS G12D (P62937 whole entry): as the sequence (P62937 whole entry, the tested form may be a part) above
Text: as §1, §2, §3, §4

[6] = molecular target: T1, NRAS G12C (Homo sapiens, UniProt P01111+P62937, G12C); experiment: Ras-Raf disruption/FRET/MOA assay, NRAS G12C; type: biochemical
T1 construct: His6
T1 sequence (P01111 whole entry G12C): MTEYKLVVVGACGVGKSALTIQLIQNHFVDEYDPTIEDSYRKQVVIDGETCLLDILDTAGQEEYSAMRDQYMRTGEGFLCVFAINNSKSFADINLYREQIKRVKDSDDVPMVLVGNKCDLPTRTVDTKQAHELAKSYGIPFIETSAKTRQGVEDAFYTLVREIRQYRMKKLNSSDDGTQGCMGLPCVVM
T1 sequence (P62937 whole entry): as the sequence (P62937 whole entry, the tested form may be a part) above
Text: as §1, §2, §3, §4

[7] = molecular target: KRAS G13C (Homo sapiens, UniProt P01116+P62937, G13C); experiment: Ras-Raf disruption/FRET/MOA assay, KRAS G13C; type: biochemical
Chain of KRAS G13C (P01116 1-169 isoform P01116-2 G13C limits assumed): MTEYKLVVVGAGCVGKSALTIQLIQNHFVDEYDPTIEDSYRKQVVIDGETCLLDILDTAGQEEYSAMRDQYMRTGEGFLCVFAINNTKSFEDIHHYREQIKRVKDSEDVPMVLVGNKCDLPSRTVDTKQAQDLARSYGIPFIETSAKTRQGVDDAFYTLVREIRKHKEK
Chain of KRAS G13C (P62937 whole entry): as the sequence (P62937 whole entry, the tested form may be a part) above
Text: as §1, §2, §3, §4

[8] = molecular target: KRAS G13D (Homo sapiens, UniProt P01116+P62937, G13D); experiment: Ras-Raf disruption/FRET/MOA assay, KRAS G13D; type: biochemical
Chain of KRAS G13D (P01116 1-169 isoform P01116-2 G13D limits assumed): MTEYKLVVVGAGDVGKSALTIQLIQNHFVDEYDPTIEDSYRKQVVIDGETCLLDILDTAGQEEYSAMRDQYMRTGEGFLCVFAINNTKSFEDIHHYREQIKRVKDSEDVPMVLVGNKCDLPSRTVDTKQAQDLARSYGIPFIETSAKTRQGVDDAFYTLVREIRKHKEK
Chain of KRAS G13D (P62937 whole entry): as the sequence (P62937 whole entry, the tested form may be a part) above
Text: as §1, §2, §3, §4

[9] = molecular target: KRAS G12C (Homo sapiens, UniProt P01116+P62937, G12C); experiment: Ras-Raf disruption/FRET/MOA assay, KRAS G12C; type: biochemical
Chain of KRAS G12C (P01116 1-169 isoform P01116-2 G12C limits assumed): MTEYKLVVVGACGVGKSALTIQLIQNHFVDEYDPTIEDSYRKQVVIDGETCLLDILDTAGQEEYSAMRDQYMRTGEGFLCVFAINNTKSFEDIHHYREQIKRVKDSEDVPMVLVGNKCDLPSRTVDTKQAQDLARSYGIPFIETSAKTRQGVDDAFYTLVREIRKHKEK
Chain of KRAS G12C (P62937 whole entry): as the sequence (P62937 whole entry, the tested form may be a part) above
Text: as §1, §2, §3, §4

[10] = system: AsPC-1 (K-Ras G12D); experiment: Potency assay: pERK in AsPC-1 cells; type: cell-based; conditions: Homo sapiens
[11] = disruption of BRAF RBD binding, with Cyclophilin A, read-out: KRAS G12S FRET IC50
[12] = AsPC-1, K-Ras G12D, 5-day treatment, read-out: AsPC-1 Cell Viability IC50
[13] = disruption of BRAF RBD binding, with Cyclophilin A, read-out: KRAS WT FRET IC50
[14] = disruption of BRAF RBD binding, with Cyclophilin A, read-out: KRAS G12V FRET IC50
[15] = disruption of BRAF RBD binding, with Cyclophilin A, read-out: KRAS G12D FRET IC50
[16] = NRAS G12C, read-out: NRAS G12C FRET data IC50
[17] = disruption of BRAF RBD binding, with Cyclophilin A, read-out: KRAS G13C FRET IC50
[18] = disruption of BRAF RBD binding, with Cyclophilin A, read-out: KRAS G13D FRET IC50
[19] = disruption of BRAF RBD binding, with Cyclophilin A, read-out: KRAS G12C FRET IC50
[20] = NRAS G12C FRET data IC50, NRAS G12C
[21] = ASPC1, read-out: pERK EC50 (AsPC-1 KRAS G12D)
[22] = read-out: AsPC-1 Cell Viability IC50

Compound	IC50 [1, 11] [nM]	IC50 [2, 12] [nM]	IC50 [3, 13] [nM]	IC50 [4, 14] [nM]	IC50 [5, 15] [nM]	IC50 [6, 16]	IC50 [7, 17] [nM]	IC50 [8, 18] [nM]	IC50 [9, 19] [nM]	EC50 [10, 21] [nM]	also measured
CCn1c(-c2cccnc2[C@H](C)OC)c2c3cc(ccc31)-c1cc(O)cc(c1)C[C@H](NC(=O)[C@H](C(C)C)N(C)C(=O)N1CCN(C(=O)[C@@H]3CN3)CC1)C(=O)N1CCC[C@H](N1)C(=O)OCC(C)(C)C2 (atropisomer, axis not shown) [Compound 197]	10 to 100	1000 to 10000	10 to 100	10 to 100	100 to 1000	10 to 100 nM	10 to 100	10 to 100	10 to 100	–	–
CCn1c(-c2cccnc2[C@H](C)OC)c2c3cc(ccc31)-c1cc(O)cc(c1)C[C@H](NC(=O)[C@H](C(C)C)N1CC[C@@]3(CCN(C[C@H]4CN4)C3)C1=O)C(=O)N1CCC[C@H](N1)C(=O)OCC(C)(C)C2 (single isomer, unassigned) [Example 139]	10 to 100	1000 to 10000	10 to 100	10 to 100	10 to 100	< 10 nM	< 10	10 to 100	< 10	–	EC50 ([10]; ASPC1, AsPC-1 cells, K-Ras G12D, read-out: pERK EC50 (AsPC-1 KRAS G12D)): < 5000 nM
CCn1c(-c2cnccc2COC)c2c3cc(ccc31)-c1cccc(c1)C[C@H](NC(=O)[C@H](C(C)C)N(C)C(=O)[C@@H]1CC[C@@H](N=C=Nc3ccc(OC)cc3)C1)C(=O)N1CCC[C@H](N1)C(=O)OCC(C)(C)C2 [70 A and B]	> 10000	–	> 10000	> 10000	–	100 to 1000 nM and > 10000 nM	–	> 10000	–	–	–
CCn1c(-c2cnccc2COC)c2c3cc(ccc31)-c1cccc(c1)C[C@H](NC(=O)[C@H](C(C)C)N(C)C(=O)[C@H]1CC[C@H](N=C=Nc3ccc(OC)cc3)C1)C(=O)N1CCC[C@H](N1)C(=O)OCC(C)(C)C2 [71 A and B]	> 10000	–	> 10000	> 10000	> 10000	100 to 1000 nM and > 10000 nM	> 10000	> 10000	–	–	–
CCn1c(-c2cnccc2COC)c2c3cc(ccc31)-c1cc(O)cc(c1)C[C@H](NC(=O)[C@H](C(C)C)N(C)C(=O)CN(C)C(=O)C1CN1)C(=O)N1CCC[C@H](N1)C(=O)OCC(C)(C)C2 (stereo partly drawn) [Compound 33]	–	–	–	–	–	–	–	–	–	< 5000	IC50 [1]: 10 to 100 nM; IC50 [3]: 100 to 1000 nM; IC50 [4]: 100 to 1000 nM; IC50 [5]: 100 to 1000 nM; IC50 [6, 20]: 10 to 100 nM; IC50 [7]: 100 to 1000 nM; IC50 [8]: 100 to 1000 nM
CCn1c(-c2cnccc2COC)c2c3cc(ccc31)-c1cc(O)cc(c1)C[C@H](NC(=O)[C@H](C(C)C)N(C)C(=O)CN(C)C(=O)[C@@H]1CN1C(C)=O)C(=O)N1CCC[C@H](N1)C(=O)OCC(C)(C)C2 [Compound 35]	10 to 100	–	10 to 100	100 to 1000	100 to 1000	10 to 100 nM	10 to 100	100 to 1000	10 to 100	< 5000	IC50 [2, 22]: 1000 to 10000 nM
CCn1c(-c2cnccc2COC)c2c3cc(ccc31)-c1cc(O)cc(c1)C[C@H](NC(=O)[C@H](C(C)C)N(C)C(=O)CN(C)C(=O)[C@@H]1CN1C(=O)OC)C(=O)N1CCC[C@H](N1)C(=O)OCC(C)(C)C2 [Compound 39]	10 to 100	–	100 to 1000	100 to 1000	100 to 1000	10 to 100 nM	10 to 100	100 to 1000	10 to 100	< 5000	IC50 [2, 22]: 1000 to 10000 nM
CCn1c(-c2cnccc2COC)c2c3cc(ccc31)-c1cc(O)cc(c1)C[C@H](NC(=O)[C@H](C(C)C)N(C)C(=O)CN(C)C(=O)[C@H]1[C@@H](C)N1[S@+]([O-])C(C)(C)C)C(=O)N1CCC[C@H](N1)C(=O)OCC(C)(C)C2 (stereo partly drawn) [Compound 53]	10 to 100	–	10 to 100	100 to 1000	100 to 1000	10 to 100 nM	10 to 100	100 to 1000	10 to 100	< 5000	IC50 [2, 22]: 1000 to 10000 nM
CCn1c(-c2cnccc2COC)c2c3cc(ccc31)-c1cc(O)cc(c1)C[C@H](NC(=O)[C@H](C(C)C)N(C)C(=O)[C@H]1CCN(C(=O)N3C[C@H]3C(=O)OC)C1)C(=O)N1CCC[C@H](N1)C(=O)OCC(C)(C)C2 [Compound 111]	100 to 1000	> 10000	100 to 1000	100 to 1000	1000 to 10000	100 to 1000 nM	100 to 1000	100 to 1000	100 to 1000	–	–
CCn1c(-c2cnccc2COC)c2c3cc(ccc31)-c1cc(O)cc(c1)C[C@H](NC(=O)[C@H](C(C)C)N(C)C(=O)CN(C)C(=O)[C@H]1N[C@H]1c1ccccc1)C(=O)N1CCC[C@H](N1)C(=O)OCC(C)(C)C2 [Compound 116]	–	–	–	–	–	–	–	–	–	–	IC50 [1]: 100 to 1000 nM; IC50 ([2]; read-out: AsPC-1 Cell Viability IC50, AsPC-1, K-Ras G12D, 5-day treatment): > 10000 nM; IC50 [3]: 10 to 100 nM; IC50 [4]: 100 to 1000 nM; IC50 [5]: 1000 to 10000 nM; IC50 [6, 20]: 100 to 1000 nM; IC50 [7]: 100 to 1000 nM; IC50 [8]: 100 to 1000 nM; IC50 [9]: 100 to 1000 nM
CCn1c(-c2cccnc2[C@H](C)OC)c2c3cc(ccc31)-c1cccc(c1)C[C@H](NC(=O)[C@H](C(C)C)N1CC[C@H](CN=C=NCCOC)C1)C(=O)N1CCC[C@H](N1)C(=O)OCC(C)(C)C2 [Compound 122]	1000 to 10000	1000 to 10000	1000 to 10000	1000 to 10000	1000 to 10000	100 to 1000 nM	100 to 1000	> 10000	100 to 1000	–	–
CCn1c(-c2cccnc2[C@H](C)OC)c2c3cc(ccc31)-c1cc(O)cc(c1)C[C@H](NC(=O)[C@H](C(C)C)N1CCC3(CCN(C(=O)[C@@H]4CN4)CC3)C1=O)C(=O)N1CCC[C@H](N1)C(=O)OCC(C)(C)C2 [Compound 195]	100 to 1000	> 10000	10 to 100	100 to 1000	1000 to 10000	10 to 100 nM	< 10	10 to 100	10 to 100	–	–
CCn1c(-c2cnccc2COC)c2c3cc(ccc31)-c1cc(O)cc(c1)C[C@H](NC(=O)[C@H](C(C)C)N(C)C(=O)CN1C(=O)[C@@H]3[C@H](C1=O)N3Cc1ccccc1)C(=O)N1CCC[C@H](N1)C(=O)OCC(C)(C)C2 (stereo partly drawn) [Example 55, (2S)-2-(2-((1R,5S)-6-benzyl-2,4-dioxo-3,6-diazabicyclo[3.1.0]hexan-3-yl)-N-methylacetamido)-N-((6^3S,4S)-1^1-ethyl-2^5-hydroxy-1^2-(4-(methoxymethyl)pyridin-3-yl)-10,10-dimethyl-5,7-dioxo-6^1,6^2,6^3,6^4,6^5,6^6-hexahydro-1^1H-8-oxa-1(5,3)-indola-6(1,3)-pyridazina-2(1,3)-benzenacycloundecaphane-4-yl)-3-methylbutanamide]	100 to 1000	> 10000	1000 to 10000	100 to 1000	> 10000	100 to 1000 nM	100 to 1000	1000 to 10000	100 to 1000	–	–
